In PubChem BioAssay (NCI):
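Test compounds were applied to cells in 96-well plates for 48 hours at 5 doses. GI50 marks 50% less growth. TGI: total growth inhibition.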

Key:
Assay in all cases: NCI tumour cell line growth inhibition, 48 h
[1] = tested on: SK-MEL-5 melanoma
[2] = tested on: HCT-116 colon
[3] = tested on: K-562 leukemia
[4] = tested on: M14 melanoma
[5] = tested on: SF-539 CNS
[6] = tested on: SF-268 CNS
[7] = tested on: SF-295 CNS
[8] = tested on: KM12 colon
[9] = tested on: MALME-3M melanoma
[10] = tested on: NCI-H226 lung

## CN(C)CCNC(=O)c1ccc(Nc2nc3ccccc3c3occc23)cc1
[1]
  GI50: 3.96 µM
  TGI: 14 µM
[2]
  GI50: 1660 nM
  TGI: 3.02 µM
[3]
  GI50: 4.29 µM
  TGI: 17.1 µM
[4]
  GI50: 1.7 µM
  TGI: 3.15 µM
[5]
  GI50: 1.83 µM
  TGI: 3.7 µM
[6]
  GI50: 63.7 µM
  TGI: > 100 µM
[7]
  GI50: 1880 nM
  TGI: 4.18 µM
[8]
  GI50: 1.89 µM
  TGI: 4.15 µM

## C/C(=N\NC(=S)N1CCCCCC1)c1nccnc1C
[1]
  TGI: 12.2 µM
[9]
  TGI: > 100 µM
[3]
  TGI: > 100 µM
[4]
  TGI: 0.654 µM
[5]
  TGI: 1.65 µM
[6]
  TGI: > 100 µM
[7]
  TGI: 16.6 µM
[8]
  TGI: > 100 µM

## O=C(Nc1ccc(Cl)c(C(F)(F)F)c1)C(=O)C(C(=O)/C=C/c1ccccc1)C1OC(=O)c2ccccc21 (configuration not stated)
[9]
  TGI: > 100 µM
[2]
  TGI: > 100 µM
[3]
  TGI: > 100 µM
[4]
  TGI: > 100 µM
[10]
  TGI: > 100 µM
[6]
  TGI: > 100 µM
[7]
  TGI: > 100 µM
[8]
  TGI: > 100 µM

## CC(=O)N1CCC2(C=Nc3ccccc32)CC1
[1]
  TGI: > 100 µM
[9]
  TGI: > 100 µM
[2]
  TGI: > 100 µM
[3]
  TGI: > 100 µM
[4]
  TGI: > 100 µM
[5]
  TGI: > 100 µM
[7]
  TGI: > 100 µM
[8]
  TGI: > 100 µM

## Cn1ccnc1C(=O)/C=C/c1ccc(CC(=O)Nc2ccc(Cl)cc2)cc1
[1]
  GI50: 14.4 µM
  TGI: > 25 µM
[9]
  GI50: 14200 nM
  TGI: > 25 µM
[2]
  GI50: 1310 nM
  TGI: > 25 µM
[10]
  GI50: 7430 nM
  TGI: > 25 µM
[5]
  GI50: 6.4 µM
  TGI: > 25 µM
[6]
  GI50: 1.24 µM
  TGI: > 25 µM
[7]
  GI50: 7390 nM
  TGI: > 25 µM
[8]
  GI50: 1.51 µM
  TGI: > 25 µM

## COc1ccc(OCC(=O)O)c2c1CCC(C(C)C)C2=O (configuration not stated)
[1]
  TGI: > 100 µM
[9]
  TGI: > 100 µM
[2]
  TGI: > 100 µM
[3]
  TGI: > 100 µM
[4]
  TGI: > 100 µM
[5]
  TGI: > 100 µM
[7]
  TGI: > 100 µM
[8]
  TGI: > 100 µM

## CC(Cn1c2c3ccccc3ccc2c2oc(=O)c3ccccc3c21)N(C)C (configuration not stated)
[9]
  TGI: > 100 µM
[2]
  TGI: > 100 µM
[3]
  TGI: > 100 µM
[4]
  TGI: > 100 µM
[5]
  TGI: > 100 µM
[6]
  TGI: > 100 µM
[7]
  TGI: > 100 µM
[8]
  TGI: > 100 µM

## O=[N+]([O-])c1cnc(Sc2ccncn2)c([N+](=O)[O-])c1
[1]
  GI50: 14.3 µM
  TGI: 28 µM
[9]
  GI50: 1830 nM
  TGI: 3.61 µM
[2]
  GI50: 1840 nM
  TGI: 3.59 µM
[3]
  GI50: 2.85 µM
  TGI: 29.9 µM
[4]
  GI50: 5.81 µM
  TGI: 19 µM
[5]
  GI50: 15.3 µM
  TGI: 28.9 µM
[6]
  GI50: 16 µM
  TGI: 30.7 µM
[7]
  GI50: > 100000 nM
  TGI: > 100 µM
[8]
  GI50: 20.9 µM
  TGI: 55.1 µM

## COc1ccc2[nH]cc(CCNC(C)=O)c2c1
[1]
  TGI: > 100 µM
[9]
  TGI: > 100 µM
[2]
  TGI: > 100 µM
[3]
  TGI: > 100 µM
[4]
  TGI: > 100 µM
[5]
  TGI: > 100 µM
[6]
  TGI: > 100 µM
[7]
  TGI: > 100 µM
[8]
  TGI: > 100 µM

## CC(C)(C)[OH+][O-].[O-]c1ccc(Cl)cc1C=Nc1ccc(Cl)cc1[O-].[O]=[V]
[1]
  GI50: 13 µM
  TGI: 26.3 µM
[9]
  GI50: 1810 nM
  TGI: 11.9 µM
[2]
  GI50: 21400 nM
  TGI: 98.9 µM
[3]
  GI50: 31.5 µM
  TGI: > 100 µM
[4]
  GI50: 13.3 µM
  TGI: 76.2 µM
[5]
  GI50: 17.8 µM
  TGI: 32.5 µM
[6]
  GI50: 23.7 µM
  TGI: 69.3 µM
[7]
  GI50: 10700 nM
  TGI: 33.5 µM
[8]
  GI50: 10.8 µM
  TGI: 32 µM

## COc1cc(Nc2cnc3cc(C(F)(F)F)ccc3n2)cc(OC)c1OC
[9]
  TGI: > 100 µM
[2]
  TGI: > 100 µM
[10]
  TGI: > 100 µM
[5]
  TGI: > 100 µM
[6]
  TGI: > 100 µM
[7]
  TGI: > 100 µM

## CCCCCCCCCCCCN1C(C)=CS/C1=C\C=C\c1scc(C)[n+]1CCCCCCCCCCCC
[4]
  GI50: 1.34 µM
  TGI: 4.61 µM
[10]
  GI50: 2340 nM
  TGI: > 100 µM
[5]
  GI50: 2.02 µM
  TGI: 8.69 µM
[6]
  GI50: 1.98 µM
  TGI: 5.7 µM
[7]
  GI50: 1530 nM
  TGI: 5.35 µM

## Nc1ccccc1C#CC#Cc1ccccc1N
[1]
  GI50: 4.36 µM
  TGI: 17.9 µM
[9]
  GI50: 35200 nM
  TGI: 61.3 µM
[2]
  GI50: 6020 nM
  TGI: 24.8 µM
[3]
  GI50: 5.78 µM
  TGI: > 100 µM
[4]
  GI50: 7.34 µM
  TGI: 65.8 µM
[7]
  GI50: 2760 nM
  TGI: > 100 µM
[8]
  GI50: 8.46 µM
  TGI: 36.2 µM

## CC/C=C\C[C@H](O)C/C=C1/C(=O)C=C[C@@H]1C/C=C\CCCC(=O)NC(C)C
[1]
  GI50: 1.8 µM
  TGI: 3.35 µM
[9]
  GI50: 2400 nM
  TGI: 6.69 µM
[2]
  GI50: 1730 nM
  TGI: 3.59 µM
[3]
  GI50: 2.86 µM
  TGI: 38.9 µM
[4]
  GI50: 2.87 µM
  TGI: 10 µM
[10]
  GI50: 2310 nM
  TGI: 4.74 µM
[6]
  GI50: 3 µM
  TGI: 13.3 µM
[7]
  GI50: 2420 nM
  TGI: 5.69 µM
[8]
  GI50: 1.91 µM
  TGI: 4.89 µM

## CC(C)C(C(=O)O)N(CC1(O)OCC(O)C(O)C1O)N=O (configuration not stated)
[1]
  TGI: > 100 µM
[9]
  TGI: > 100 µM
[2]
  TGI: > 100 µM
[3]
  TGI: > 100 µM
[4]
  TGI: > 100 µM
[5]
  TGI: > 100 µM
[8]
  TGI: > 100 µM
